# Experimental data reported in PubChem BioAssay (NCI).
#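 Five compound concentrations were applied to cells in 96-well plates for 48 hours; endpoints were derived by simple linear interpolation of the resulting dose-response curve. TGI: total growth inhibition.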
# What was measured:
# Assay in all cases: DTP human tumour cell line panel, 48 h
# HCT-15 colon = tested on: HCT-15 colon
# SW-620 colon = tested on: SW-620 colon
# TK-10 renal = tested on: TK-10 renal
# SNB-78 CNS = tested on: SNB-78 CNS
# KM12 colon = tested on: KM12 colon
# HCT-116 colon = tested on: HCT-116 colon
# A498 renal = tested on: A498 renal
# M14 melanoma = tested on: M14 melanoma
# HOP-18 NSCLC = tested on: HOP-18 NSCLC
# HOP-62 NSCLC = tested on: HOP-62 NSCLC
# MDA-MB-435 = tested on: MDA-MB-435
SMILES,TGI (HCT-15 colon) [µM],TGI (SW-620 colon) [µM],TGI (TK-10 renal) [µM],TGI (SNB-78 CNS) [µM],TGI (KM12 colon) [µM],TGI (HCT-116 colon) [µM],TGI (A498 renal) [µM],TGI (M14 melanoma) [µM],TGI (HOP-18 NSCLC) [µM],TGI (HOP-62 NSCLC) [µM],TGI (MDA-MB-435) [µM]
COC1=CC(=O)NCCN1,> 100,50.9,> 100,> 100,> 100,> 100,> 100,> 100,> 100,> 100,–
CCN(CC)CCNC(=O)c1nn(-c2ccc(Cl)cc2)c2c1CCc1cc(OC)ccc1-2,7.81,7.59,23.8,24.2,19.5,13.3,21.9,5.86,28.7,29.2,23.6
O=[N+]([O-])c1ccc(COc2cccc3cccnc23)cc1,25.7,–,52.5,> 100,96.5,> 100,79.2,29,> 100,> 100,–
CCN(CC)CC(=O)Nc1ccc2c(c1)C(=O)c1ccc(NC(=O)CN(CC)CC)cc1C2=O,> 100,69.8,> 100,> 100,70,30.5,> 100,36.8,–,74.1,–
CN=C(NC)N(C)c1nc(=[N+](C)C)ss1,> 100,> 100,> 100,> 100,> 100,> 100,> 100,> 100,–,> 100,–
COc1ccc2c(c1)CCN1C3=C(CCC3)C(=O)C[C@@H]21,> 100,> 100,> 100,> 100,> 100,> 100,> 100,> 100,> 100,> 100,–
CCCCc1c2c(nc3c1CC/C(=C\c1ccc([N+](=O)[O-])cc1)C3=O)CCCC2,1.16,3.53,3.17,4.38,3.52,3.22,–,3.34,–,3.29,–
Cc1cc(C)c(C(=O)/C=C/c2ccccc2)c(C)c1,51.3,48.1,> 100,–,> 100,78.2,–,40.3,> 100,76,–
COc1cc(C(=O)OCCn2[nH]c(-c3ccc(Cl)cc3)nc2=S)cc(OC)c1OC,> 100,> 100,> 100,–,> 100,> 100,> 100,> 100,–,> 100,> 100
COc1cc(Nc2nc3ccccc3nc2C(C)C)cc(OC)c1OC,> 100,> 100,> 100,–,> 100,> 100,> 100,> 100,–,> 100,> 100
COC(=O)c1ccc(C)cc1CC1Cc2c(C)cccc2C1=O (stereo not given),12.7,> 48.7,> 54.6,–,16.1,15.4,24,> 54.1,–,> 53.4,4.38
C=CCn1c(-c2ccc(Cl)cc2Cl)csc1=Nc1c(C)n(C)n(-c2ccccc2)c1=O,30,32.8,25.7,–,29.3,20.4,25.4,23.8,–,29.7,25.2
CCOC(=O)N1N(c2ccccc2)C(=O)C1(c1ccccc1)c1ccccc1,> 100,> 100,> 100,–,> 100,> 100,> 100,> 100,–,46,> 100
COc1ccc(N(C(=O)NCCO)c2ccccc2)cc1,> 100,> 100,> 100,–,> 100,> 100,> 100,> 100,–,> 100,> 100
C/C(=C1\C(=O)C(c2ccccc2)N(c2ccccc2)C1=O)c1ccc(Cl)cc1 (stereo not given),43.6,72.3,52.5,–,57.1,36.3,33.1,42.3,–,84.5,32.8
Cc1nc2ccccc2n1Cc1nnc2n1N=C(c1ccccc1)CS2,> 100,> 100,> 100,–,> 100,> 100,> 100,> 100,–,> 100,> 100
Cc1ccc(C)c(COCCOCn2c(=O)[nH]c(=O)c3cc(Br)ccc32)c1,> 100,> 100,> 100,–,> 100,> 100,> 100,> 100,–,> 100,> 100
NC(=O)C1CCCN1C(=O)N(CCCl)N=O (stereo not given),> 100,> 100,> 100,–,> 100,> 100,> 100,> 100,–,> 100,> 100

SMILES,TGI (HCT-15 colon) [µM],TGI (SW-620 colon) [µM],TGI (TK-10 renal) [µM],TGI (SNB-78 CNS) [µM],TGI (KM12 colon) [µM],TGI (HCT-116 colon) [µM],TGI (A498 renal) [µM],TGI (M14 melanoma) [µM],TGI (HOP-18 NSCLC) [µM],TGI (HOP-62 NSCLC) [µM],TGI (MDA-MB-435) [µM]
COC[C@@H](N=CN1CCc2cc(OC)c(OC)cc2C1)C(C)(C)C,> 100,> 100,> 100,–,> 100,> 100,–,> 100,> 100,> 100,–
COc1ccc(-c2nc3c(nc2-c2ccc(OC)cc2)N(C)S(=O)(=O)N=C3N)cc1,> 100,> 100,> 100,–,92.2,30.7,> 100,> 100,> 100,> 100,–
COc1cccc(C=C2N=C(C)N(n3c(-c4ccccc4)nc4ccccc4c3=O)C2=O)c1,> 100,> 100,> 100,–,> 100,> 100,> 100,> 100,–,> 100,> 100
CC(=O)c1ccccc1NS(=O)(=O)c1ccc2nc(C)n(NS(=O)(=O)c3ccccc3C(C)=O)c(=O)c2c1,> 100,> 100,> 100,–,> 100,> 100,> 100,> 100,–,> 100,> 100
CCn1c(=O)c2c3cc(OC(C)=O)ccc3oc2c2ccc(OC(C)=O)cc21,> 100,> 100,> 100,–,> 100,> 100,83,> 100,–,> 100,> 100
NC(=S)N/N=C1\CCCCC1C(O)(C(F)(F)Cl)C(F)(F)Cl (stereo not given),> 10,> 10,> 10,–,> 10,> 10,> 10,> 10,–,> 10,> 10
CCOC(=O)C1=C(C)NC(C)=C(C(=O)OCC)C1c1ccc(C)cc1,> 100,> 100,> 100,–,> 100,> 100,97.9,> 100,–,> 100,> 100
CCOP(C)(=O)/C(Cc1ccc(OC)c(OC)c1)=N\O (stereo not given),> 100,> 100,> 100,–,> 100,> 100,> 100,> 100,–,> 100,> 100
CNc1nc2c(C)ccc3[nH]c(N(C)C)nc3c-2n1,> 100,> 100,> 100,–,> 100,> 100,> 100,51.1,–,> 100,> 100
O[C@H]1[C@H](O)[C@@H](Cn2nnc(-c3ccccc3)c2-c2ccccc2)OCO[C@@H]1Cn1nnc(-c2ccccc2)c1-c1ccccc1,11.8,46.6,19,–,11.6,9.63,16,11.7,–,29,22.8
COc1ccc(/C=C2\CN(C)CC3C2=NN(c2ccccc2)C3c2ccc(OC)cc2)cc1 (stereo not given),> 100,> 100,91.8,–,> 100,> 100,> 100,> 100,–,> 100,> 100
CSc1ccc2c(cc1=O)[C@@H](NC(=O)c1ccc([N+](=O)[O-])cc1)CCc1cc(O)c(O)c(O)c1-2,85.1,> 100,> 100,–,37.4,> 100,> 100,> 100,–,33.4,> 100
CC(C)(SCc1ccccc1)C(N)C(=O)O (stereo not given),> 100,> 100,> 100,–,> 100,> 100,> 100,> 100,–,> 100,> 100
O=C1C2CC=CCC2C(=O)N1n1c(Cc2ccccc2)n[nH]c1=O (stereo not given),> 100,> 100,> 100,–,> 100,> 100,> 100,> 100,–,> 100,> 100
COc1ccc(-c2nc3cc(C(F)(F)F)ccc3n2CC2CCCN3CCCCC23)cc1 (stereo not given),29.1,28.5,30.2,–,45.2,33.6,26.2,25.6,–,38.5,34.3
Cc1cc(=O)c2ccccc2n1CCCCCCCCCCn1c(C)cc(=O)c2ccccc21,> 100,56,30.2,–,29.4,27.8,28.9,> 100,–,> 100,29.7
CN(C)Cc1cc(C(=O)/C=C/c2ccc(F)cc2)cc(CN(C)C)c1O,30.3,75.5,> 100,–,48.9,27,94.8,27.4,–,58.5,38.9
S=C(c1c[nH]c2ccccc12)N1CCCCC1,> 100,> 100,> 100,–,> 100,> 100,> 100,> 100,–,> 100,> 100
